Experimental findings from ChEMBL document CHEMBL1201862, “PubChem BioAssay data set” (2004) are described below.

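Method: 48-hour compound exposure of cells in 96-well plates, five concentrations, linear interpolation of endpoints. GI50 is the concentration that inhibits growth by half.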 Active and inactive are the calls of the source. Rule as the data show it: active = GI50 up to about 1.1 µM and inactive = higher.

Test systems include CCRF-CEM; DU-145; HOP-92; HT-29; K562; MCF7; OVCAR-4; RPMI-8226; SF-268; SF-295; SF-539; SK-OV-3; UACC-62; UO-31; HCC 2998; HCT-15; SK-MEL-5; SR.
Holding throughout (assay): NCI tumour cell line growth inhibition, 48 h

On to `Cn1c(Nc2ccccc2)c(/C=N\c2ccccc2)c(=O)n(C)c1=O`, for which the GI50 was > 100 µM (inactive) in the assay on CCRF-CEM; > 100 µM (inactive) with DU-145; 41.7 µM (inactive) in the assay on HOP-92; 47.9 µM (inactive) with HT-29; > 100 µM (inactive) in the assay with K562; > 100 µM (inactive) in the assay with MCF7. Moreover, the GI50 was > 100 µM (inactive) in the assay on OVCAR-4; > 100 µM (inactive) with RPMI-8226; 45.7 µM (inactive) with SF-268; 89.5 µM (inactive) with SF-295; 94 µM (inactive) in the assay on SF-539; 62.1 µM (inactive) in the assay on SK-OV-3. For the same molecule, the GI50 was > 100 µM (inactive) with UACC-62 and 54.2 µM (inactive) in the assay with UO-31.
With `CC(C)=NN/C=N\C(C#N)=C(/N)C#N`, the GI50 with CCRF-CEM was > 100 µM (inactive); in the assay on DU-145, > 100 µM (inactive); in the assay on HCC 2998, 0.262 µM (active); in the assay on HCT-15, greater than 100 µM; in the assay on HT-29, > 100 µM (inactive); with K562, > 100 µM (inactive). The GI50 in the assay with MCF7, in the assay on OVCAR-4, in the assay with RPMI-8226, in the assay on SF-268, in the assay on SF-295 and in the assay with SF-539 was > 100 µM (inactive) throughout. In addition, the GI50 is 25.8 µM (inactive) with SK-MEL-5; > 100 µM (inactive) with SK-OV-3; > 100 µM (inactive) in the assay with SR; > 100 µM (inactive) in the assay on UACC-62; > 100 µM (inactive) in the assay on UO-31.
As for `CCOC(=O)C1CSCCSC1`, the GI50 in the assay on CCRF-CEM is > 100 µM (inactive); in the assay with DU-145, > 100 µM (inactive); in the assay with HCC 2998, 25.5 µM (inactive); in the assay with HCT-15, greater than 100 µM; with HOP-92 it was > 100 µM (inactive); in the assay on HT-29 it was > 100 µM (inactive). Further, the GI50 in the assay with K562 is > 100 µM (inactive); in the assay with MCF7, > 100 µM (inactive); with SF-268, > 100 µM (inactive); in the assay on SF-295, > 100 µM (inactive); in the assay on SK-MEL-5, 43.2 µM (inactive); in the assay with SK-OV-3, > 100 µM (inactive). The GI50 with SR and in the assay on UO-31 was > 100 µM (inactive) each time.
Regarding `CN(C)c1ccc(C(N)=O)cn1`, the GI50 in the assay with CCRF-CEM was > 100 µM (inactive); with DU-145 it was > 100 µM (inactive); in the assay on HCC 2998, > 100 µM (inactive); in the assay with HCT-15, greater than 100 µM; in the assay on HT-29, > 100 µM (inactive); in the assay on K562 it was > 100 µM (inactive). Further, the GI50 in the assay on MCF7, with RPMI-8226, with SF-268, with SF-295, with SF-539 and in the assay on SK-MEL-5 was > 100 µM (inactive) each time. The GI50 in the assay with SR, in the assay with UACC-62 and in the assay on UO-31 was > 100 µM (inactive) in each case.
In the case of `COc1ccc2c(c1)OCc1c-2oc2ccccc2c1=O`, the GI50 with CCRF-CEM is > 100 µM (inactive); in the assay on DU-145 it was > 100 µM (inactive); with HCC 2998, > 100 µM (inactive); with HCT-15, greater than 100 µM; with HOP-92 it was > 100 µM (inactive); in the assay on HT-29 it was > 100 µM (inactive). Also, the GI50 with K562 was > 100 µM (inactive); in the assay with MCF7, > 100 µM (inactive); in the assay on RPMI-8226 it was > 100 µM (inactive); with SF-268, 69.3 µM (inactive); in the assay on SF-295 it was 52.7 µM (inactive); in the assay with SF-539, 40.1 µM (inactive). The GI50 is 41.1 µM (inactive) in the assay on SK-MEL-5; 47.5 µM (inactive) in the assay on SK-OV-3; > 100 µM (inactive) in the assay with SR; > 100 µM (inactive) in the assay with UACC-62; > 100 µM (inactive) with UO-31.
For the molecule `CCOC(=O)C(=[N+]=[N-])C(=O)CN1C(=O)C2CC(C)=C(C)CC2C1O` (stereo unspecified), the GI50 with CCRF-CEM, in the assay with DU-145, in the assay with HCC 2998, with HT-29, in the assay on K562 and in the assay with MCF7 was > 100 µM (inactive) each time. In addition, the GI50 with RPMI-8226, in the assay with SF-268, in the assay on SF-295, with SF-539, in the assay with SK-MEL-5 and with SR was > 100 µM (inactive) throughout. Further, the GI50 with UACC-62 and in the assay with UO-31 was > 100 µM (inactive) in each case.
As for `CC(Oc1ccc(OCC2CCCCC2)cc1)C(=O)N(CCO)CCO` (stereo unspecified), the GI50 in the assay on CCRF-CEM was > 100 µM (inactive); in the assay with HCC 2998, 32.9 µM (inactive); with HCT-15 it was greater than 100 µM; in the assay with HT-29, > 100 µM (inactive); with K562, > 100 µM (inactive); with OVCAR-4, > 100 µM (inactive). The GI50 in the assay with SF-268 was > 100 µM (inactive); in the assay with SF-295, > 100 µM (inactive); with SF-539 it was 23.6 µM (inactive); in the assay on SK-MEL-5, > 100 µM (inactive); with SK-OV-3, > 100 µM (inactive); with UACC-62 it was > 100 µM (inactive). For the same molecule, the GI50 in the assay on UO-31 is > 100 µM (inactive).
In the case of `CC(/C=C/C=C/C=C/C=C/C=C/C(=O)C1=C(O)C(CCC(=O)O)N(C)C1=O)=C\C(C)C(OC1CC(O)C(O)C(C)O1)C(C)C` (stereo unspecified), the GI50 is 3.26 µM (inactive) in the assay with CCRF-CEM; 3.42 µM (inactive) in the assay on DU-145; 2.15 µM (inactive) in the assay on HCC 2998; 3.68 µM in the assay with HCT-15; 2.72 µM (inactive) in the assay on HOP-92; 3.02 µM (inactive) with HT-29. Also, the GI50 in the assay with K562 is 3.71 µM (inactive); with MCF7, 4.35 µM (inactive); in the assay with OVCAR-4, 5.75 µM (inactive); in the assay with RPMI-8226, 3.13 µM (inactive); in the assay with SF-268, 2.84 µM (inactive); in the assay with SF-295 it was 3.8 µM (inactive). The GI50 in the assay with SF-539 was 2.56 µM (inactive); in the assay with SK-MEL-5 it was 1.91 µM (inactive); with SR, 3.85 µM (inactive); in the assay on UO-31, 3.3 µM (inactive).
For the molecule `C=C1CCC([N+](=O)[O-])[C@](C)(N=O)CC[C@@H]2C1CC2(C)C` (stereo partly specified), the GI50 is 6.62 µM (inactive) with CCRF-CEM; > 100 µM (inactive) with DU-145; 22.8 µM in the assay on HCT-15; 19.9 µM (inactive) in the assay on HOP-92; 19.9 µM (inactive) with HT-29; 17.3 µM (inactive) with K562. Also, the GI50 in the assay on MCF7 was 16.6 µM (inactive); in the assay on OVCAR-4, 24.7 µM (inactive); in the assay with RPMI-8226, 26 µM (inactive); in the assay with SF-268, 31.3 µM (inactive); with SF-295 it was 17.9 µM (inactive); in the assay on SK-MEL-5, 15.3 µM (inactive). Further, the GI50 was 57.7 µM (inactive) in the assay on SK-OV-3, 8.57 µM (inactive) in the assay with SR, > 10 µM (inactive) in the assay with UACC-62 and 16.3 µM (inactive) with UO-31.
